Measured values from patent US9708314B2, “Heterocyclic amide compound” (NISSAN CHEMICAL INDUSTRIES, LTD., priority 2013, dated 2017).

Legend:
Setaria viridis = experiment: Test Example 4: herbicidal effect by application to foliage (diluvial soil, plastic box); type: in vivo; settings: application to foliage, application herbicide amount 320 g/ha
How it was run: (§1)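 Emulsion-formulated compound, diluted to a predetermined g/ha dose, applied by small sprayer to leaves and stems of 14-day-old seedlings grown in sterilized diluvial soil. Effect rated on 0–5 herbicidal-ratio scale three weeks on.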

Galium spurium = experiment: as above; type: in vivo; settings: application to foliage, application herbicide amount 320 g/ha
How it was run: as §1

Stellaria media = experiment: as above; type: in vivo; settings: application to foliage, application herbicide amount 320 g/ha
How it was run: as §1

Apera spica-venti. = experiment: as above; type: in vivo; settings: application to foliage, application herbicide amount 320 g/ha
How it was run: as §1

Chenopodium album = experiment: as above; type: in vivo; settings: application to foliage, application herbicide amount 320 g/ha
How it was run: as §1

Alopecurus myosuroides = experiment: as above; type: in vivo; settings: application to foliage, application herbicide amount 320 g/ha
How it was run: as §1

[1] = tested on: Echinochloa crus-galli var. crus-galli; experiment: as above; type: in vivo; settings: application to foliage, application herbicide amount 320 g/ha
How it was run: as §1

Amaranthus retroflexus = experiment: as above; type: in vivo; settings: application to foliage, application herbicide amount 320 g/ha
How it was run: as §1

Avena fatua = experiment: as above; type: in vivo; settings: application to foliage, application herbicide amount 320 g/ha
How it was run: as §1

Lolium multiflorum Lam. = experiment: as above; type: in vivo; settings: application to foliage, application herbicide amount 320 g/ha
How it was run: as §1

Abutilon theophrasti = experiment: as above; type: in vivo; settings: application to foliage, application herbicide amount 320 g/ha
How it was run: as §1

Veronica persica = experiment: as above; type: in vivo; settings: application to foliage, application herbicide amount 320 g/ha
How it was run: as §1

Digitaria ciliaris = experiment: as above; type: in vivo; settings: application to foliage, application herbicide amount 320 g/ha
How it was run: as §1

Triticum aestivum = experiment: Test Example 4: effect on crop by application to foliage (diluvial soil, plastic box); type: in vivo; settings: application to foliage, application herbicide amount 320 g/ha
How it was run: as §1

[2] = tested on: directly sowed Oryza sativa; experiment: as above; type: in vivo; settings: application to foliage, application herbicide amount 320 g/ha
How it was run: as §1

Zea mays = experiment: as above; type: in vivo; settings: application to foliage, application herbicide amount 320 g/ha
How it was run: as §1

Glycine max = experiment: as above; type: in vivo; settings: application to foliage, application herbicide amount 320 g/ha
How it was run: as §1

[3] = tested on: Beta vulgaris ssp. vulgaris; experiment: as above; type: in vivo; settings: application to foliage, application herbicide amount 320 g/ha
How it was run: as §1

Brassica campestris L. = experiment: as above; type: in vivo; settings: application to foliage, application herbicide amount 320 g/ha
How it was run: as §1

Cyperus difformis = experiment: Test Example 3: herbicidal effect by application to foliage (Wagner pot, water depth 0.1-0.5 cm); type: in vivo; settings: Nineteenth Table; application herbicide amount 320 g/ha
How it was run: (§2)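 Three weeks after spraying, each species was graded 0–5 for herbicidal ratio, 5 being 90% or more. Application: water-diluted emulsifiable concentrate at a fixed g/ha to foliage of 14-day-old greenhouse (25–30 °C) plants in alluvial soil.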

[4] = tested on: Echinochloa crus-galli var. crus-galli; experiment: as above; type: in vivo; settings: Nineteenth Table; application herbicide amount 320 g/ha
How it was run: as §2

Leptochloa chinensis = experiment: as above; type: in vivo; settings: Nineteenth Table; application herbicide amount 320 g/ha
How it was run: as §2

[5] = tested on: directly sowed Oryza sativa; experiment: Test Example 3: effect on crop by application to foliage (Wagner pot, water depth 0.1-0.5 cm); type: in vivo; settings: Nineteenth Table; application herbicide amount 320 g/ha
How it was run: as §2

Cc1nnc(NC(=O)c2ccc(C(F)(F)F)n3c(Cl)nnc23)o1 [1-013, 3-Chloro-N-(5-methyl-1,3,4-oxadiazol-2-yl)-5-(trifluoromethyl)-[1,2,4]triazolo[4,3-a]pyridine-8-carboxamide]
G (Setaria viridis) herbicidal effect (Setaria viridis): 1 (Herbicidal ratio of 5% or more and less than 20%) | Q (Galium spurium) herbicidal effect (Galium spurium): 1 (Herbicidal ratio of 5% or more and less than 20%) | P (Stellaria media) herbicidal effect (Stellaria media): 4 (Herbicidal ratio of 70% or more and less than 90%) | L (Apera spica-venti.) herbicidal effect (Apera spica-venti.): 0 (Herbicidal ratio of 5% or less (almost no effect)) | O (Chenopodium album) herbicidal effect (Chenopodium album): 5 (Herbicidal ratio of 90% or more (almost completely withered)) | J (Alopecurus myosuroides) herbicidal effect (Alopecurus myosuroides): 1 (Herbicidal ratio of 5% or more and less than 20%) | H (Echinochloa crus-galli var. crus-galli) herbicidal effect [1]: 4 (Herbicidal ratio of 70% or more and less than 90%) | N (Amaranthus retroflexus) herbicidal effect (Amaranthus retroflexus): 3 (Herbicidal ratio of 40% or more and less than 70%) | I (Avena fatua) herbicidal effect (Avena fatua): 0 (Herbicidal ratio of 5% or less (almost no effect)) | K (Lolium multiflorum Lam.) herbicidal effect (Lolium multiflorum Lam.): 1 (Herbicidal ratio of 5% or more and less than 20%) | M (Abutilon theophrasti) herbicidal effect (Abutilon theophrasti): 3 (Herbicidal ratio of 40% or more and less than 70%) | R (Veronica persica) herbicidal effect (Veronica persica): 3 (Herbicidal ratio of 40% or more and less than 70%) | F (Digitaria ciliaris) herbicidal effect (Digitaria ciliaris): 3 (Herbicidal ratio of 40% or more and less than 70%) | e (Triticum aestivum) effect on crop (Triticum aestivum): 1 (Herbicidal ratio of 5% or more and less than 20%) | d (directly sowed Oryza sativa) effect on crop [2]: 0 (Herbicidal ratio of 5% or less (almost no effect)) | b (Zea mays) effect on crop (Zea mays): 0 (Herbicidal ratio of 5% or less (almost no effect)) | c (Glycine max) effect on crop (Glycine max): 0 (Herbicidal ratio of 5% or less (almost no effect)) | f (Beta vulgaris ssp. vulgaris) effect on crop [3]: 3 (Herbicidal ratio of 40% or more and less than 70%) | g (Brassica campestris L.) effect on crop (Brassica campestris L.): 0 (Herbicidal ratio of 5% or less (almost no effect)) | melting point: 238 to 241 °C | E (Cyperus difformis) herbicidal ratio grade (Cyperus difformis): 3 (Herbicidal ratio of 40% or more and less than 70%) | H (Echinochloa crus-galli var. crus-galli) herbicidal ratio grade [4]: 3 (Herbicidal ratio of 40% or more and less than 70%) | D (Leptochloa chinensis) herbicidal ratio grade (Leptochloa chinensis): 4 (Herbicidal ratio of 70% or more and less than 90%) | b (directly sowed Oryza sativa) effect on crop grade [5]: 0 (Herbicidal ratio of 5% or less (almost no effect))
